According to US8987195B2 (priority 2012, dated 2015):
Read-outs that look alike come from different tables or passages of the source.

Tests used:
[1] = target: HCV NS3/4A protease genotype 1b (Hepatitis C virus genotype 1b, UniProt P26663); assay: HCV NS3/4A protease time-resolved fluorescence (TRF) assay, Ki against genotype 1b; assay type: biochemical; settings: IC50 [gt-1b] (nM), NS3/4A genotype 1b, enzyme 0.2 nM
Summary of the method: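 Enzyme was pre-incubated 30 min with inhibitor in HEPES pH 7.5 buffer (150 mM NaCl, 15% glycerol, 10 mM DTT). Reaction ran 2.5 h at room temperature with 25 nM europium TRF peptide substrate, read at ex 340/em 615 nm. Enzyme levels: 0.2 nM (1b), 0.4 nM (A156T), 0.025 nM (3a). Ki came from four-parameter IC50 via IC50=Ki(1+[S]/KM).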

[2] = system: HCV genotype 1b replicon; assay: HCV replicon assay, genotype 1b replicon EC50; assay type: cell-based, Hepatitis C virus; settings: genotype 1b replicon, read-out: EC50 [gt-1b]
Description: Measuring Compound Inhibitory Potency (Genotype 1b Replicon EC50 (nM))
Measurement of inhibition by compounds was performed using the HCV replicon system. Several different replicons encoding different HCV genotypes or mutations were used. In addition, potency measurements were made using different formats of the replicon assay, including different ways of measurements and different plating formats. See Jan M. Vrolijk et al., A replicons-based bioassay for the measurement of interferons in patients with chronic hepatitis C, 110 J. VIROLOGICAL METHODS 201 (2003); Steven S. Carroll et al., Inhibition of Hepatitis C Virus RNA Replication by 2′-Modified Nucleoside Analogs, 278(14) J. BIOLOGICAL CHEMISTRY 11979 (2003). However, the underlying principles are common to all of these determinations, and are outlined below.
Stable neomycin phosphotransferase encoding replicon-harboring cell lines were used, so all cell lines were maintained under G418 selection prior to the assay. In some cases the cell lines encoded a luciferase:Neo^r fusion and could be assayed either directly by determination of RNA copy number, or indirectly through measurement of the luciferase activity.
To initiate an assay, replicon cells were plated in the presence of a dilution series of test compound in the absence of G418. Typically, the assays were performed in a 96-well plate format for manual operation, or a 384 well plate in an automated assay. Replicon cells and compound were incubated for 24-48 hours, depending on the assay. At the end of the assay, cells are washed free of media and compound and then lysed. For direct quantitation, RNA levels were measured by ^32P-probe hybridization and protection, or in a TAQMAN based assay and normalized to cellular cyclophilin A RNA levels. In some cases, luciferase activity was measured using a conventional luciferase assay. In all cases EC50 determinations were calculated as a percent of a DMSO control by fitting the data to a four parameter fit function.

SMILES	IC50 [1]	EC50 ([2]; Hepatitis C virus)	EC50 [2]	other results
Cc1nc2ccccc2c2c1O[C@]1(CC2)C[C@H]2C(=O)N[C@]3(C(=O)NS(=O)(=O)C4(C)CC4)C[C@H]3/C=C\CCCCC[C@H](NC(=O)OC(CN(C)S(C)(=O)=O)C(C)(C)C)C(=O)N2C1 (single isomer, unassigned) [Example 259]	0.007 nM	24 nM	–	–
Cc1nc2ccccc2c2c1O[C@]1(CC2)C[C@H]2C(=O)N[C@]3(C(=O)NS(=O)(=O)C4(C)CC4)C[C@H]3/C=C\CCCCC[C@H](NC(=O)OC(CN(C)S(C)(=O)=O)C(C)(C)C)C(=O)N2C1 (single isomer, unassigned) [Example 262]	0.037 nM	–	38.9 nM	–
COc1ccc2c3c(c(C4CC4)nc2c1)O[C@]1(CC3)C[C@H]2C(=O)N[C@]3(C(=O)NS(=O)(=O)C4(C)CC4)C[C@H]3/C=C\CCCCC[C@H](NC(=O)CC(C)(C)C)C(=O)N2C1 (single isomer, unassigned) [Example 279]	–	–	–	IC50 ([1]; HCOOH salt): 0.051 nM; EC50 ([2]; Hepatitis C virus, HCOOH salt): 22.3 nM
CCc1ccc2nc(C)c3c(c2c1)C(F)C[C@]1(C[C@H]2C(=O)N[C@]4(C(=O)NS(=O)(=O)C5(C)CC5)C[C@H]4/C=C\CCCCC[C@H](NC(=O)OC(C)(C)C)C(=O)N2C1)O3 (single isomer, unassigned) [Example 315]	1.29 nM	–	294 nM	–
CCc1ccc2nc(C)c3c(c2c1)C(F)C[C@]1(C[C@H]2C(=O)N[C@]4(C(=O)NS(=O)(=O)C5(C)CC5)C[C@H]4/C=C\CCCCC[C@H](NC(=O)OC(C)(C)C)C(=O)N2C1)O3 (single isomer, unassigned) [Example 316]	0.008 nM	–	2.63 nM	–
CCc1ccc2nc(C)c3c(c2c1)C(F)C[C@]1(C[C@H]2C(=O)N[C@]4(C(=O)NS(=O)(=O)C5(C)CC5)C[C@H]4/C=C\CCCCC[C@H](NC(=O)OC(C)(C)C(F)(F)F)C(=O)N2C1)O3 (single isomer, unassigned) [Example 346]	0.012 nM	–	4.23 nM	–
CCc1ccc2nc(C)c3c(c2c1)C(F)C[C@]1(C[C@H]2C(=O)N[C@]4(C(=O)NS(=O)(=O)C5(C)CC5)C[C@H]4/C=C\CCCCC[C@H](NC(=O)OC(C)(C)C(F)(F)F)C(=O)N2C1)O3 (single isomer, unassigned) [Example 347]	0.981 nM	–	3060 nM	–
Cc1nc2ccc(OC(F)(F)F)cc2c2c1O[C@]1(CC2)C[C@H]2C(=O)N[C@]3(C(=O)NS(=O)(=O)C4(C)CC4)C[C@H]3/C=C\CCCCC[C@H](NC(=O)OC(C)(C)C)C(=O)N2C1 [Example 1, tert-butyl (2R,6S,13aS,14aR,16aS,Z)-5′-methyl-14a-(1-methylcyclopropylsulfonylcarbamoyl)-5,16-dioxo-9′-(trifluoromethoxy)-1′,2′,3,5,6,7,8,9,10,11,13a,14,14a,15, 16,16a-hexadecahydro-1H-spiro[cyclopropa[e]pyrrolo[1,2-a][1,4]diazacyclopentadecine-2,3′-pyrano[2,3-c]quinoline]-6-ylcarbamate]	0.013 nM	1.47 nM	–	–
COc1ccc2nc(C(C)C)c3c(c2c1)CC[C@]1(C[C@H]2C(=O)N[C@]4(C(=O)NS(=O)(=O)C5(C)CC5)C[C@H]4/C=C\CCCCC[C@H](NC(=O)OC(C)(C)C)C(=O)N2C1)O3 [Example 2, tert-Butyl (2R,6S,13aS,14aR,16aS,Z)-5′-isopropyl-9′-methoxy-14a-(1-methylcyclopropylsulfonylcarbamoyl)-5,16-dioxo-1′,2′,3,5,6,7,8,9,10,11,13a,14,14a,15,16,16a-hexadecahydro-1H-spiro[cyclopropa[e]pyrrolo[1,2-a][1,4]diazacyclopentadecine-2,3′-pyrano[2,3-c]quinoline]-6-ylcarbamate]	0.012 nM	1.19 nM	–	–
COc1ccc2nc(C(C)C)c3c(c2c1)C(F)(F)C[C@]1(C[C@H]2C(=O)N[C@]4(C(=O)NS(=O)(=O)C5(C)CC5)C[C@H]4/C=C\CCCCC[C@H](NC(=O)OC(C)(C)C)C(=O)N2C1)O3 [Example 3, tert-Butyl (2S,6S,13aS,14aR,16aS,Z)-1′,1′-difluoro-5′-isopropyl-9′-methoxy-14a-(1-methylcyclopropylsulfonylcarbamoyl)-5,16-dioxo-1′,2′,3,5,6,7,8,9,10,11,13a,14,14a, 15,16,16a-hexadecahydro-1H-spiro[cyclopropa[e]pyrrolo[1,2-a][1,4]diazacyclopentadecine-2,3′-pyrano[2,3-c]quinoline]-6-ylcarbamate]	0.004 nM	2.9 nM	–	–
CC1(S(=O)(=O)NC(=O)[C@@]23C[C@H]2/C=C\CCCCC[C@H](NC(=O)OC2CCCC2)C(=O)N2C[C@@]4(CCc5c(c(-c6cccc(F)c6)nc6ccccc56)O4)C[C@H]2C(=O)N3)CC1 [Example 81, cyclopentyl [(2R,6S,12Z,13aS,14aR,16aS)-5′-(3-fluorophenyl)-14a-{[(1-methylcyclopropyl)sulfonyl]carbamoyl}-5,16-dioxo-1,1′,2′,5,6,7,8,9,10,11,13a,14,14a,15,16,16a-hexadecahydrospiro[cyclopropa[e]pyrrolo[1,2-a][1,4]diazacyclopentadecine-2,3′-pyrano[2,3-c]quinolin]-6-yl]carbamate]	–	1.33 nM	–	–
CC1(S(=O)(=O)NC(=O)[C@@]23C[C@H]2/C=C\CCCCC[C@H](NC(=O)NC2CCCC2)C(=O)N2C[C@@]4(CCc5c(c(-c6cccc(F)c6)nc6ccccc56)O4)C[C@H]2C(=O)N3)CC1 [Example 82, (2R,6S,12Z,13aS,14aR,16aS)-6-[(cyclopentylcarbamoyl)amino]-5′-(3-fluorophenyl)-N-[(1-methylcyclopropyl)sulfonyl]-5,16-dioxo-1,1′,2′,6,7,8,9,10,11,13a,14,15,16,16a-tetradecahydrospiro[cyclopropa[e]pyrrolo[1,2-a][1,4]diazacyclopentadecine-2,3′-pyrano[2,3-c]quinoline]-14a(5H)-carboxamide]	–	4.25 nM	–	–
CC1(S(=O)(=O)NC(=O)[C@@]23C[C@H]2/C=C\CCCCC[C@H](NC(=O)NC2CCCCC2)C(=O)N2C[C@@]4(CCc5c(c(-c6cccc(F)c6)nc6ccccc56)O4)C[C@H]2C(=O)N3)CC1 [Example 83, (2R,6S,12Z,13aS,14aR,16aS)-6-[(cyclohexylcarbamoyl)amino]-5′-(3-fluorophenyl)-N-[(1-methylcyclopropyl)sulfonyl]-5,16-dioxo-1,1′,2′,6,7,8,9,10,11,13a,14,15,16,16a-tetradecahydrospiro[cyclopropa[e]pyrrolo[1,2-a][1,4]diazacyclopentadecine-2,3′-pyrano[2,3-c]quinoline]-14a(5H)-carboxamide]	–	3.71 nM	–	–
Cc1nc2ccccc2c2c1O[C@]1(CC2)C[C@H]2C(=O)N[C@]3(C(=O)NS(=O)(=O)C4(C)CC4)C[C@H]3/C=C\CCCCC[C@H](NC(=O)CC(F)(F)F)C(=O)N2C1 [Example 84, (2R,6S,12Z,13aS,14aR,16aS)-5′-methyl-N-[(1-methylcyclopropyl)sulfonyl]-5,16-dioxo-6-[(3,3,3-trifluoropropanoyl)amino]-1,1′,2′,6,7,8,9,10,11,13a,14,15,16,16a-tetradecahydrospiro[cyclopropa[e]pyrrolo[1,2-a][1,4]diazacyclopentadecine-2,3′-pyrano[2,3-c]quinoline]-14a(5H)-carboxamide]	–	7.79 nM	–	–
Cc1ccc2nc(C)c3c(c2c1)CC[C@]1(C[C@H]2C(=O)N[C@]4(C(=O)O)C[C@H]4/C=C\CCCCC[C@H](NC(=O)OC(C)(C)C)C(=O)N2C1)O3 [Example 86, (2R,6S,12Z,13aS,14aR,16aS)-6-[(tert-butoxycarbonyl)amino]-5′,9′-dimethyl-5,16-dioxo-1,1′,2′,6,7,8,9,10,11,13a,14,15,16,16a-tetradecahydrospiro[cyclopropa[e]pyrrolo[1,2-a][1,4]diazacyclopentadecine-2,3′-pyrano[2,3-c]quinoline]-14a(5H)-carboxylic acid]	–	> 100 nM	–	–
CC(C)OC(=O)N[C@H]1CCCCC/C=C\[C@@H]2C[C@@]2(C(=O)NS(=O)(=O)C2(C)CC2)NC(=O)[C@@H]2C[C@]3(CCc4c(c(-c5cccc(F)c5)nc5ccccc45)O3)CN2C1=O [Example 89, propan-2-yl [(2R,6S,12Z,13aS,14aR,16aS)-5′-(3-fluorophenyl)-14a-{[(1-methylcyclopropyl)sulfonyl]carbamoyl}-5,16-dioxo-1,1′,2′,5,6,7,8,9,10,11,13a,14,14a,15,16,16a-hexadecahydrospiro[cyclopropa[e]pyrrolo[1,2-a][1,4]diazacyclopentadecine-2,3′-pyrano[2,3-c]quinolin]-6-yl]carbamate]	–	2.85 nM	–	–
